According to PubChem BioAssay (NCI):
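Compound exposure: 48 hours, 5 concentrations, 96-well plates. Here, GI50 denotes the concentration required for 50% inhibition of growth. TGI: total growth inhibition.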

Assays:
Assay in all cases: growth of human tumour cells (NCI), 48 h
[1] = system: 786-0 renal
[2] = system: A498 renal
[3] = system: A549 NSCLC
[4] = system: ACHN renal
[5] = system: BT-549 breast
[6] = system: CAKI-1 renal
[7] = system: CCRF-CEM leukemia
[8] = system: COLO 205 colon
[9] = system: DU-145 prostate
[10] = system: EKVX NSCLC
[11] = system: HCC-2998 colon
[12] = system: HCT-116 colon
[13] = system: HCT-15 colon
[14] = system: HL-60(TB) leukemia
[15] = system: HOP-62 NSCLC
[16] = system: HOP-92 NSCLC
[17] = system: HS 578T breast
[18] = system: HT29 colon
[19] = system: IGROV1 ovarian
[20] = system: K-562 leukemia
[21] = system: KM12 colon
[22] = system: LOX IMVI melanoma
[23] = system: MALME-3M melanoma
[24] = system: MCF7 breast
[25] = system: MDA-MB-231 breast
[26] = system: MDA-MB-435
[27] = system: MDA-N
[28] = system: MOLT-4 leukemia
[29] = system: NCI-H226 lung
[30] = system: NCI-H23 lung
[31] = system: NCI-H460 lung
[32] = system: NCI-H522 lung
[33] = system: NCI/ADR-RES ovarian
[34] = system: OVCAR-3 ovarian
[35] = system: OVCAR-4 ovarian
[36] = system: OVCAR-5 ovarian
[37] = system: OVCAR-8 ovarian
[38] = system: PC-3 prostate
[39] = system: RPMI-8226 leukemia
[40] = system: RXF 393 renal
[41] = system: SF-268 CNS
[42] = system: SF-295 CNS
[43] = system: SF-539 CNS
[44] = system: SK-MEL-28 melanoma
[45] = system: SK-MEL-5 melanoma
[46] = system: SN12C renal
[47] = system: SNB-19 CNS
[48] = system: SNB-75 CNS
[49] = system: SR leukemia
[50] = system: SW-620 colon
[51] = system: TK-10 renal
[52] = system: U251 CNS
[53] = system: UACC-257 melanoma
[54] = system: UO-31 renal
[55] = system: M14 melanoma
[56] = system: SK-MEL-2 melanoma
[57] = system: SK-OV-3 ovarian
[58] = system: T-47D breast
[59] = system: UACC-62 melanoma

CCNC(=O)c1c(O)c2ccccc2[nH]c1=O
TGI [1]: > 100 µM | TGI [2]: > 100 µM | TGI [3]: > 100 µM | TGI [4]: > 100 µM | TGI [5]: > 100 µM | TGI [6]: > 100 µM | TGI [7]: > 100 µM | TGI [8]: > 100 µM | TGI [9]: > 100 µM | TGI [10]: > 100 µM | TGI [11]: > 100 µM | TGI [12]: > 100 µM | TGI [13]: > 100 µM | TGI [14]: > 100 µM | TGI [15]: > 100 µM | TGI [16]: > 100 µM | TGI [17]: > 100 µM | TGI [18]: > 100 µM | TGI [19]: > 100 µM | TGI [20]: > 100 µM | TGI [21]: > 100 µM | TGI [22]: > 100 µM | TGI [23]: > 100 µM | TGI [24]: > 100 µM | TGI [25]: > 100 µM | TGI [26]: > 100 µM | TGI [27]: > 100 µM | TGI [28]: > 100 µM | TGI [29]: > 100 µM | TGI [30]: > 100 µM | TGI [31]: > 100 µM | TGI [32]: > 100 µM | TGI [33]: > 100 µM | TGI [34]: > 100 µM | TGI [35]: > 100 µM | TGI [36]: > 100 µM | TGI [37]: > 100 µM | TGI [38]: > 100 µM | TGI [39]: > 100 µM | TGI [40]: > 100 µM | TGI [41]: > 100 µM | TGI [42]: > 100 µM | TGI [43]: > 100 µM | TGI [44]: > 100 µM | TGI [45]: > 100 µM | TGI [46]: > 100 µM | TGI [47]: > 100 µM | TGI [48]: > 100 µM | TGI [49]: > 100 µM | TGI [50]: > 100 µM | TGI [51]: > 100 µM | TGI [52]: > 100 µM | TGI [53]: > 100 µM | TGI [54]: > 100 µM

COc1ccccc1CNCCCN1C(=O)c2ccc3c4c(ccc(c24)C1=O)C(=O)N(CCCCNCCCN)C3=O
GI50 [1]: 2.25 µM | TGI [1]: 9.35 µM | GI50 [2]: 3.12 µM | TGI [2]: 12.8 µM | GI50 [3]: 1.58 µM | TGI [3]: 3.5 µM | GI50 [4]: 3.68 µM | TGI [4]: 17.3 µM | GI50 [5]: 2.23 µM | TGI [5]: 4.51 µM | GI50 [6]: 13.1 µM | TGI [6]: 34.8 µM | GI50 [7]: 0.752 µM | TGI [7]: 5.17 µM | GI50 [8]: 0.524 µM | TGI [8]: 1.08 µM | GI50 [9]: 1.59 µM | TGI [9]: 2.99 µM | GI50 [10]: 2 µM | TGI [10]: 5.75 µM | GI50 [11]: 1.12 µM | TGI [11]: 3.03 µM | GI50 [12]: 0.648 µM | TGI [12]: 1.94 µM | GI50 [13]: 4.43 µM | TGI [13]: 18.6 µM | GI50 [14]: 0.867 µM | TGI [14]: 2.7 µM | GI50 [15]: 2.93 µM | TGI [15]: 10.4 µM | GI50 [16]: 2.01 µM | TGI [16]: 7.04 µM | GI50 [17]: 2.27 µM | TGI [17]: 8.2 µM | GI50 [18]: 0.95 µM | TGI [18]: 3.37 µM | GI50 [19]: 1.43 µM | TGI [19]: 3.86 µM | GI50 [20]: 1.9 µM | TGI [20]: 4.87 µM | GI50 [21]: 2.53 µM | TGI [21]: 9.7 µM | GI50 [22]: 0.654 µM | TGI [22]: 1.69 µM | GI50 [55]: 1.89 µM | TGI [55]: 3.5 µM | GI50 [23]: 0.871 µM | TGI [23]: 2.18 µM | GI50 [24]: 0.472 µM | TGI [24]: 1.35 µM | GI50 [25]: 2.64 µM | TGI [25]: 13.2 µM | GI50 [26]: 0.574 µM | TGI [26]: 1.16 µM | GI50 [28]: 0.389 µM | TGI [28]: 1.7 µM | GI50 [29]: 2.26 µM | TGI [29]: 9.24 µM | GI50 [30]: 0.594 µM | TGI [30]: 1.63 µM | GI50 [31]: 0.825 µM | TGI [31]: 2.82 µM | GI50 [32]: 1.46 µM | TGI [32]: 3.25 µM | GI50 [33]: 5.98 µM | TGI [33]: 34.2 µM | GI50 [34]: 0.334 µM | TGI [34]: 1.14 µM | GI50 [35]: 0.458 µM | TGI [35]: 1.24 µM | GI50 [36]: 2.95 µM | TGI [36]: 9.02 µM | GI50 [37]: 0.71 µM | TGI [37]: 3.67 µM | GI50 [38]: 2.29 µM | TGI [38]: 9.82 µM | GI50 [39]: 1.91 µM | TGI [39]: 10.7 µM | GI50 [40]: 0.807 µM | TGI [40]: 2.3 µM | GI50 [41]: 1.57 µM | TGI [41]: 7.27 µM | GI50 [42]: 3.65 µM | TGI [42]: 17.4 µM | GI50 [43]: 1.68 µM | TGI [43]: 3.19 µM | GI50 [56]: 1.09 µM | TGI [56]: 3.09 µM | GI50 [44]: 1.59 µM | TGI [44]: 3.55 µM | GI50 [45]: 0.467 µM | TGI [45]: 0.95 µM | GI50 [57]: 3.74 µM | TGI [57]: 15.9 µM | GI50 [46]: 0.704 µM | TGI [46]: 2.09 µM | GI50 [47]: 1.31 µM | TGI [47]: 2.72 µM | GI50 [48]: 7.13 µM | GI50 [49]: 0.362 µM | TGI [49]: > 23.6 µM | GI50 [50]: 0.636 µM | TGI [50]: 2 µM | GI50 [58]: 1.13 µM | TGI [58]: 3.65 µM | GI50 [51]: 2.62 µM | TGI [51]: 8.07 µM | GI50 [52]: 0.831 µM | TGI [52]: 2.28 µM | GI50 [53]: 0.698 µM | TGI [53]: 2.08 µM | GI50 [59]: 1.01 µM | TGI [59]: 2.68 µM | GI50 [54]: 3.5 µM | TGI [54]: 14.4 µM
